Some results are limits rather than exact numbers.

In assay [1] the test system is AGS. In words: CCK-8 antiproliferation assay. Conditions: Homo sapiens, 48 h treatment. The assay is classed as cell-based. The method, then: (§1) Cell lines purchased from the Cell Bank of Type Culture Collection of the Chinese Academy of Sciences (Shanghai, China) were passaged after resuscitation. […] The third to tenth passages of cells were used for experiments. […] After incubation, 20 µL CCK‐8 solution (MeilunBio) was added. Two hours later, absorption was measured by a Varioskan plate at 450 nm. Inhibition curves and IC50 values were simulated and calculated using the log(inhibitor) versus response (three parameters) mode via GraphPad Prism software.
On the technique in general: Tetrazolium dyes change colour on reduction, which living cells bring about.

Assay [2] has as its system KM3. In words: CCK-8 antiproliferation assay. It is filed as cell-based. Conditions: Homo sapiens, 48 h treatment. The method, then: as §1
Assay [3] has as its system HL-60. In words: CCK-8 antiproliferation assay. It is filed as cell-based. Conditions: Homo sapiens, 48 h treatment. As to the method: as §1
The test system of assay [4] is NCI-H929. In words: CCK-8 antiproliferation assay. The assay is classed as cell-based. Conditions: Homo sapiens, 48 h treatment. As to the method:
as §1

Assay [5] relates to PC-3. The experiment in a line: CCK-8 antiproliferation assay. Conditions: Homo sapiens, 48 h treatment. It is filed as cell-based. The method, then: as §1
Assay [6] has as its system RPMI-8226. The experiment in a line: CCK-8 antiproliferation assay. The assay is classed as cell-based. Conditions: Homo sapiens, 48 h treatment. As to the method:
as §1

The test system of assay [7] is MCF-7. In words: CCK-8 antiproliferation assay. It is filed as cell-based. Conditions: Homo sapiens, MCF7, 48 h treatment. As to the method: as §1
The subject of assay [8] is Jurkat. The experiment in a line: CCK-8 antiproliferation assay. It is filed as cell-based. Conditions: Homo sapiens, 48 h treatment. As to the method:
as §1

The target in assay [9] is T1, HDAC7 (Homo sapiens, UniProt Q8WUI4).
T1 construct: purchased BPS BIOSCIENCE Inc 50007
T1 sequence (Q8WUI4 whole entry): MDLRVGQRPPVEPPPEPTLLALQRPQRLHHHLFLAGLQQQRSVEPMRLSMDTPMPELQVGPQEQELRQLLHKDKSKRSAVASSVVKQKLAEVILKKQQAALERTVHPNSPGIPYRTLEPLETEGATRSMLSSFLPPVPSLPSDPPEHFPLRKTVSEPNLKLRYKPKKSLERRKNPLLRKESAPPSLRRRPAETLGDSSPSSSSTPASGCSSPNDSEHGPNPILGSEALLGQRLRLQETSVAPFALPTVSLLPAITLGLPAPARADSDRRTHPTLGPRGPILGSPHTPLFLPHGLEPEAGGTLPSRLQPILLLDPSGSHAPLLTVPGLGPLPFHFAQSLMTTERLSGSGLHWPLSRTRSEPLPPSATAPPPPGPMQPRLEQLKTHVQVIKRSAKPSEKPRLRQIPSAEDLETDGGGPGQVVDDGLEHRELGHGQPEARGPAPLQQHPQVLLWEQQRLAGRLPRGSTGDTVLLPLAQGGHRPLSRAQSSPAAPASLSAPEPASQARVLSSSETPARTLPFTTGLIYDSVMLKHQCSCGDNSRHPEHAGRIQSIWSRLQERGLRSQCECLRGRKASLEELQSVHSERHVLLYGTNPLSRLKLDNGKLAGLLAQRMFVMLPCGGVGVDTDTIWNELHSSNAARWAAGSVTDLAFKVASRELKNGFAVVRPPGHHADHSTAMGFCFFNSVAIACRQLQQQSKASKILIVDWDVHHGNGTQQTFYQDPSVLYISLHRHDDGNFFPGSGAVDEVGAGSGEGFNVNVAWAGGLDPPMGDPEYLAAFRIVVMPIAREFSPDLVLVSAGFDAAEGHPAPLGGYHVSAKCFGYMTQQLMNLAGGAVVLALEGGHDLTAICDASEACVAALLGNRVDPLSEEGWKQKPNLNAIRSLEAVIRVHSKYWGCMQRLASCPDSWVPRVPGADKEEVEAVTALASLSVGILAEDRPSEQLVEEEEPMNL
In words: HDACs enzymatic assay HDAC7. As to conditions: Class IIa. It is filed as biochemical. The method, then: (§2) HDACs enzymatic assays were conducted according to our previous work. […] Substrates (Boc‐Lys(acetyl)‐AMC for HeLa nuclear extract, Ac‐Leu‐Gly‐Lys (Tfa)‐AMC for HDAC4, HDAC5, HDAC6, HDAC7, HDAC9, HDAC10, and HDAC11, Boc‐Lys(triflouroacetyl)‐AMC for HDAC8 and Ac‐Leu‐Gly‐Lys(acetyl)‐AMC for HDAC1, HDAC2, HDAC3) were added to the mixture. The blank group was set to no enzyme or drug but contains substrates and the control group was set to no drug but contains substrates and enzymes to each 96‐well plate. After 30 min of incubation at 37°C, the mixture was terminated with 1 mg/mL trypsin and 3 µM TSA. After another 30 min, the fluorescence intensity was measured using a Varioskan plate reader at 360/460 nm. […] The inhibition curves and IC50 values were simulated and calculated using the log(inhibitor) versus response (three parameters) mode in GraphPad Prism software.

For assay [10], the system named is MDA-MB-231 cells. In words: EdU assay. It is filed as cell-based, human. As to conditions: MDA-MB-231, 2 µM, 24 h. The method, then:
The EdU assay is performed by BeyoClick EdU kit. MDA‐MB‐231 cells were cultured in a 6‐well plate overnight. […] Following labeling, cells are fixed with 4% PFA for 15 min, washed three times with wash buffer, and permeabilized using 0.3% Triton X‐100 for 15 min. After another wash, endogenous peroxidases are blocked for 20 min. For detection, a click reaction mix (containing Biotin Azide, CuSO4, and click additive) is added and incubated for 30 min. After washing, streptavidin–HRP is applied and reacted for 30 min, followed by 5 min DAB substrate incubation. Finally, cells are washed, optionally counterstained, and imaged under a microscope.

Assay [11] addresses T2, HDAC2 (Homo sapiens, UniProt Q92769).
T2 construct: purchased BPS BIOSCIENCE Inc 50052
The experiment in a line: HDACs enzymatic assay HDAC2. The assay is classed as biochemical. As to conditions: Class I; mean ± SD of three. As to the method: as §2

Assay [12] has as its system B16F10 syngeneic model. The experiment in a line: B16F10 syngeneic model. It is filed as in vivo. As to conditions: C57BL/6J mice, HDAC inhibitors by oral gavage, anti-PD-L1 intraperitoneal, 7-day treatment. The method, then: With the approval of the ethics committee of Shandong University, C57BL/6J mice were purchased from Charles River and fed in SPF conditions at the Model Animal Research Centre of Shandong University. To establish the B16F10 syngeneic model, cells in logarithmic growth phase were trypsinized with 0.25% trypsin, resuspended in sterile PBS, and adjusted to 1 × 10^6 cells/100 µL. The cell suspension (100 µL) was subcutaneously injected into the left axilla. When tumors reached to certain volume, mice were randomized (n = 5/group) and treated with Chidamide, LBH‐589, or SDFZ‐8 by oral gavage and intraperitoneal injection of anti‐PD‐L1. Tumor growth curves were plotted over a 7‐day treatment cycle. All procedures complied with AAALAC International guidelines for humane endpoint criteria.

In assay [13] the test system is MDA-MB-231 cells. The experiment in a line: Western blotting (immunoblotting). As to conditions: 24 h. It is filed as cell-based, human. The source says: Anti‐H3 (#13998), anticleaved Caspase‐3 (#9661) and anti‐PARP (#9542) antibody was purchased from Cell Signal Technology (CST). Anti‐Caspase‐3 (T40044) was brought from Abmart. Antitubulin antibody (ab179484) was obtained from Abcam PLC. Anti‐Bcl‐2 (F0125) and anti‐Bax (F0037) antibody were purchased from Selleck Chemicals. Anti‐GAPDH antibody (AF1186) was obtained from Beyotime Inc. The protocol of Western blotting was the same as our previous works. In brief, 2.5 × 10^5 MDA‐MB‐231 cells were treated with different drugs or DMSO (equal volume to experimental groups) for 24 h and lysed with modified RIPA buffer. The cell lysates were added to loading buffer (Beyotime #P0015L) and heated in boiling water for 5 mins and then, together with biomarker (Epizymebiotech; 15–250 kDa), were electrophoresed in SDS‐PAGE gels under 80 V voltage until the biomarker reached the end of gels. Next, SDS‐PAGE gels and PVDF membrane were clipped together to perform transmembrane procedure under 350 mA currency for 1 h. Then after incubation with 5% skim milk, TBST, primary antibody and secondary antibody, the PVDF membrane was treated with ECL chemiluminescence solution (Boster Biological Technology #AR1174) and imaged by the imager (Imager 680 Amersham Imager).
Background: A western blot detects proteins with antibodies after separation by electrophoresis.

T2 sequence (Q92769 whole entry): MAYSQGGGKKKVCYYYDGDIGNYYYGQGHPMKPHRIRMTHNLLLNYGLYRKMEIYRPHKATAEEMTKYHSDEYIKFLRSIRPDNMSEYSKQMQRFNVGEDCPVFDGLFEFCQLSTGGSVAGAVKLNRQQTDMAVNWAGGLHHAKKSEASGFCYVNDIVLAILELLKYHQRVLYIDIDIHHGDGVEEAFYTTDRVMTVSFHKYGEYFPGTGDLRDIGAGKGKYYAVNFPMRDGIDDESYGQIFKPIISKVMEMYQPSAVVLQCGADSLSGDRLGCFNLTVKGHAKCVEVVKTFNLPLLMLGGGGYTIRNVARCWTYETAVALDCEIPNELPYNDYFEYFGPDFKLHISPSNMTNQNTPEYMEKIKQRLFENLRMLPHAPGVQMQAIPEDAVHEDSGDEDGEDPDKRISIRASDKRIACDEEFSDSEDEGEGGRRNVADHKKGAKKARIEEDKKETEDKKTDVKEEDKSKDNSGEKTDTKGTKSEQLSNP

Take `O=C(CCCCCCNC(=O)c1cc(OCCc2ccccc2)c2ccccc2n1)NO` [SDFZ-8]: the IC50 came out at 560 ± 20 nM in assay [1]; 100 ± 5 nM in assay [2]; 94 ± 4 nM in assay [3]; 100 ± 5 nM in [4]; 620 ± 70 nM in assay [5]; 460 ± 30 nM in [6]. Further, the IC50 in [7] was 1960 ± 60 nM; in [8], 89 ± 1 nM; in assay [9], over 10000 nM; in assay [11] it was 5.8 ± 1.5 nM. Besides, the EdU positive cells entry in assay [10] is on record as “decreased”. Moreover, the TGI in assay [12] is listed as 75%. The “antiapoptotic protein Bcl-2 expression” value in assay [13] is on record as “downregulating”. In [13], the “levels of cleaved caspase-3 and cleaved PARP” value was “increase”. Further, the “proapoptotic protein Bax expression” value in assay [13] is reported as “upregulated”. The “level of acetylated histone H3 (Ac-H3)” value in assay [13] (western blotting) was “upregulation”. In assay [13] (western blotting), the “level of acetylated tubulin (Ac-tubulin)” value is “upregulation”.

The IC50 is the concentration that inhibits the measured activity by half. Read a high IC50 as weaker potency.

The values above are taken from paper PMC12627232 (MedComm, 2025).
